Source: patent publication US6040335A, “Therapeutics for thrombocytopenia” (Suntory Limited, priority 1995, dated 2000)

Legend:
[1] = system: Mouse Platelet; assay: Mouse Platelet Increasing Action (platelet count, electrical impedance method); type: in vivo, C57BL/6 mice; conditions: every 24 hr
Experimental: The measurement of platelet increasing activity can be implemented by the method described in Ishibashi, T. et al, Blood, 74(4):1241-1244, 1989 or modifications thereof. For example, an animal for platelet measurement such as mouse (e.g. C57BL/6 mouse), rat, dog or monkey is administered intraperitoneally with a test drug as dissolved in ethanolic physiological saline or dimethyl sulfoxide (hereunder sometimes referred to as DMSO) at a suitable concentration. The frequency of administration is usually once or twice a day for 5-10 continuous days; a blood sample is taken from the orbital venous plexus several hours after the final administration and the platelet count is determined. Administration may be performed by any methods including oral, intravenous, intramuscular and subcutaneous routes. The interval of administrations, their frequency and the number of days on which the administration is made are also variable with the drug under test. Platelet count can be determined by an electrical impedance method using a multi-channel automatic platelet counter (e.g., COULTER COUNTER Model JT of Coulter Corporation).
C57BL/6 mice (male, 7-week old) were administered intraperitoneally with the following compounds of the invention in 1% DMSO physiological saline or with 1% DMSO physiological saline alone (control) at 24-hr intervals for 5, 7 or 10 continuous days. Blood samples were collected 72-hr after the final administration in the case of 5-day administration, and 4-hr after the final administration in the case of 7 or 10-day administration, and the platelet count was determined by an electrical impedance method.

[2] = system: C57BL/6 mice; assay: Toxicity Test (intravenous, deaths); type: in vivo; conditions: 5 mg/kg intravenous
[3] = 0.03 mg/kg i.p., 5 days, blood 72 hr after final administration
[4] = 0.1 mg/kg i.p., 5 days, blood 72 hr after final administration
[5] = 1.0 mg/kg i.p., 5 days, blood 72 hr after final administration

Structure (SMILES) | Platelet count (Mean ± S.E.) [1, 3] | Platelet count (Mean ± S.E.) [1, 4] | Platelet count (Mean ± S.E.) [1, 5] | Platelet count (Mean ± S.E.) ([1]; 0.03 mg/kg i.p., 7 days, blood 4 hr after final administration, control 1070 ± 152) | Platelet count (Mean ± S.E.) ([1]; 0.1 mg/kg i.p., 7 days, blood 4 hr after final administration, control 1070 ± 152) | Platelet count (Mean ± S.E.) ([1]; 0.1 mg/kg i.p., 10 days, blood 4 hr after final administration, control 985 ± 130) | Platelet count (Mean ± S.E.) ([1]; 1.0 mg/kg i.p., 7 days, blood 4 hr after final administration, control 1070 ± 152) | Platelet count (Mean ± S.E.) ([1]; 1.0 mg/kg i.p., 10 days, blood 4 hr after final administration, control 985 ± 130) | cases of death [2]
CCC1C=CC(=O)OC1/C=C/C(O)(CCN(CC)CC)C(CC(O)/C=C\C=C/C1CCCC(O)C1)OP(=O)(O)O (centres unmarked) [Example 7, 6-[3-(2-Diethylaminoethyl)-3,6-dihydroxy-10-(3-hydroxycyclohexyl)-4-(phosphonoxy)-1,7,9-decatrienyl]-5,6-dihydro-5-ethyl-2H-pyran-2-one] | 1373 ± 76 × 10^3 /μl | 1686 ± 226 × 10^3 /μl | 1408 ± 427 × 10^3 /μl | – | – | – | – | – | –
CCC1C=CC(=O)OC1/C=C/C(O)(CCN(C)C)C(CC(O)/C=C\C=C/C1CCCC(O)C1)OP(=O)(O)O (centres unmarked) [Example 3, 6-[3,6-Dihydroxy-3-(2-dimethylaminoethyl)-10-(3-hydroxycyclohexyl)-4-(phosphonoxy)-1,7,9-decatrienyl]-5,6-dihydro-5-ethyl-2H-pyran-2-one] | – | – | – | 1417 ± 159 × 10^3 /μl | 1486 ± 314 × 10^3 /μl | 1280 ± 260 × 10^3 /μl | 1532 ± 137 × 10^3 /μl | 1356 ± 156 × 10^3 /μl | no cases of death
C=CCN(CC=C)CCC(O)(/C=C/C1OC(=O)C=CC1CC)C(CC(O)/C=C\C=C/C1CCCC(O)C1)OP(=O)(O)O (centres unmarked) [Example 25, 6-[3-(2-Diallylaminoethyl)-3,6-dihydroxy-10-(3-hydroxycyclohexyl)-4-(phosphonoxy)-1,7,9-decatrienyl]-5,6-dihydro-5-ethyl-2H-pyran-2-one] | 1074 ± 182 × 10^3 /μl | 1506 ± 209 × 10^3 /μl | 1133 ± 170 × 10^3 /μl | – | – | – | – | – | –
CCC1C=CC(=O)OC1/C=C/C(O)(CCNC(C)C)C(CC(O)/C=C\C=C/C1CCCC(O)C1)OP(=O)(O)O (centres unmarked) [Example 9, 6-[3,6-Dihydroxy-10-(3-hydroxycyclohexyl)-3-(2-isopropylaminoethyl)-4-(phosphonoxy)-1,7,9-decatrienyl]-5,6-dihydro-5-ethyl-2H-pyran-2-one] | 1433 ± 125 × 10^3 /μl | 1818 ± 291 × 10^3 /μl | 1465 ± 244 × 10^3 /μl | – | – | – | – | – | –
CCC1C=CC(=O)OC1/C=C/C(O)(CC[N+](C)(C)C)C(CC(O)/C=C\C=C/C1CCCC(O)C1)OP(=O)(O)O (centres unmarked) [Example 23, 6-[3,6-Dihydroxy-10-(3-hydroxycyclohexyl)-4-(phosphonoxy)-3-(2-trimethylammoniumethyl)-1,7,9-decatrienyl]-5,6-dihydro-5-ethyl-2H-pyran-2-one] | – | 1545 ± 294 × 10^3 /μl | 1513 ± 425 × 10^3 /μl | – | – | – | – | – | –
CCCCCNCCC(O)(/C=C/C1OC(=O)C=CC1CC)C(CC(O)/C=C\C=C/C1CCCC(O)C1)OP(=O)(O)O (centres unmarked) [Example 12, 6-[3,6-Dihydroxy-10-(3-hydroxycyclohexyl)-3-(2-pentylaminoethyl)-4-(phosphonoxy)-1,7,9-decatrienyl]-5,6-dihydro-5-ethyl-2H-pyran-2-one] | 1263 ± 99 × 10^3 /μl | 1623 ± 192 × 10^3 /μl | 1338 ± 236 × 10^3 /μl | – | – | – | – | – | –
CCC1C=CC(=O)OC1/C=C/C(O)(CCNC1CCCC1)C(CC(O)/C=C\C=C/C1CCCC(O)C1)OP(=O)(O)O (centres unmarked) [Example 13, 6-[3-(2-Cyclopentylaminoethyl)-3,6-dihydroxy-10-(3-hydroxycyclohexyl)-4-(phosphonoxy)-1,7,9-decatrienyl]-5,6-dihydro-5-ethyl-2H-pyran-2-one] | 1490 ± 108 × 10^3 /μl | 1765 ± 291 × 10^3 /μl | 1313 ± 293 × 10^3 /μl | – | – | – | – | – | –
CCC1C=CC(=O)OC1/C=C/C(O)(CCN(CCO)CCO)C(CC(O)/C=C\C=C/C1CCCC(O)C1)OP(=O)(O)O (centres unmarked) [Example 20, 6-[3-(2-Diethanolaminoethyl)-3,6-dihydroxy-10-(3-hydroxycyclohexyl)-4-(phosphonoxy)-1,7,9-decatrienyl]-5,6-dihydro-5-ethyl-2H-pyran-2-one] | 1154 ± 138 × 10^3 /μl | 1325 ± 104 × 10^3 /μl | 1498 ± 192 × 10^3 /μl | – | – | – | – | – | –
